The target in this assay is T1, human M4 muscarinic acetylcholine receptor (Homo sapiens, UniProt P08173).
T1 construct: expressed in transfected cells; host or cells: CHO-K1
T1 sequence (P08173 1-479): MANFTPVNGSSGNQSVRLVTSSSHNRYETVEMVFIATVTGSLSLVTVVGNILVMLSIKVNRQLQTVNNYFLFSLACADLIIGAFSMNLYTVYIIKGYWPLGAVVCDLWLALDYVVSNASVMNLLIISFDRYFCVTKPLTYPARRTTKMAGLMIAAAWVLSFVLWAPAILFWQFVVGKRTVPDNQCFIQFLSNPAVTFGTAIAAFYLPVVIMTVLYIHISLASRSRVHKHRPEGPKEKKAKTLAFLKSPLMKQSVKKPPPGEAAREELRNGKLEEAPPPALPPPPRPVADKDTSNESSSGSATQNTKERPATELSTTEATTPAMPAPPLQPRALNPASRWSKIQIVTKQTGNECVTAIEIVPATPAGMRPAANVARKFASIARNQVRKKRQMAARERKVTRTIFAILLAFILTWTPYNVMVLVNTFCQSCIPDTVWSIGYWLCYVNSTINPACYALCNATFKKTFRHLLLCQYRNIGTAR
Briefly: human FLIPR-based M4 PAM assay (calcium mobilization in CHO-K1 cells with human M4 receptor and Gαqi5). It is filed as cell-based. The settings on record: inflection point of dose response curve, acetylcholine at 20% of maximum response, FLIPR Tetra, read-out: M4 PAM IP. The essentials: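 CHO-K1 cells stably expressing human M4 and chimeric Gαqi5 were dye-loaded ~1 h at 37° C. Test compound was added with fluorescence recorded 4 min, then acetylcholine at EC20 (sometimes a further EC70 addition) with reading 3.5 min. Value is the inflection point of a 4-parameter logistic fit.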
For orientation: Calcium flux is commonly read through the fluorescence of an indicator in the cells.
Regarding `CC1(Cn2cc(-c3cccnc3-c3ccc4c(c3)C(=O)N(C3CC3)C4)cn2)CCCC1` [Example 26, 2-cyclopropyl-6-(3-(1-((1-methylcyclopentyl)methyl)-1H-pyrazol-4-yl)pyridin-2-yl)isoindolin-1-one], the EC50 was 32 nM.
As for `C#CCN1Cc2ncc(-c3nc(CF)ccc3-c3cnn(CC4(C)CCCC4)c3)cc2C1=O` [Example 117, 3-(6-(Fluoromethyl)-3-(1-((1-methylcyclopentyl)methyl)-1H-pyrazol-4-yl)pyridin-2-yl)-6-(prop-2-yn-1-yl)-6,7-dihydro-5H-pyrrolo[3,4-b]pyridin-5-one], the EC50 amounted to 32 nM.
For the compound `C#CCN1Cc2ccc(-c3nc4c(cc3-c3cnn(CC5(C)CCCC5)c3)CCC4)cc2C1=O` [Example 123, 6-(3-(1-((1-methylcyclopentyl)methyl)-1H-pyrazol-4-yl)-6,7-dihydro-5H-cyclopenta[b]pyridin-2-yl)-2-(prop-2-yn-1-yl)isoindolin-1-one], the EC50 came to 48 nM.
Consider `CN1Cc2ccc(-c3nc(F)ccc3-c3cnn(CC4(C)CCCC4)c3F)cc2C1=O` [Example 57, 6-(6-fluoro-3-(5-fluoro-1-((1-methylcyclopentyl)methyl)-1H-pyrazol-4-yl)pyridin-2-yl)-2-methylisoindolin-1-one], for which the EC50 came out at 44 nM.
For the compound `O=C1c2cc(-c3ncccc3-c3cnn(CC4CCCC4)c3)ccc2CN1CC1CCCO1` (stereo not drawn) [Example 85, 6-(3-(1-(cyclopentylmethyl)-1H-pyrazol-4-yl)pyridin-2-yl)-2-((tetrahydrofuran-2-yl)methyl)isoindolin-1-one], the EC50 stood at 60 nM.
On to `O=C1c2cc(-c3ncccc3-c3cnn(CC4CCCC4)c3)ccc2CN1CC1CCC1` [Example 86, 2-(cyclobutylmethyl)-6-(3-(1-(cyclopentylmethyl)-1H-pyrazol-4-yl)pyridin-2-yl)isoindolin-1-one], for which the EC50 was found to be 62 nM.

The record behind these values is US10933056B2, “3-(1H-pyrazol-4-yl)pyridine allosteric modulators of the M4 muscarinic acetylcholine receptor” (Merck Sharp & Dohme Corp., priority 2015, dated 2021).
